The target in series [1] is T1, m1 receptor (Homo sapiens, UniProt P11229).
T1 construct: expressed in transfected cells; host or cells: NIH 3T3 (ATCC CRL 1658)
T1 sequence (P11229 1-460): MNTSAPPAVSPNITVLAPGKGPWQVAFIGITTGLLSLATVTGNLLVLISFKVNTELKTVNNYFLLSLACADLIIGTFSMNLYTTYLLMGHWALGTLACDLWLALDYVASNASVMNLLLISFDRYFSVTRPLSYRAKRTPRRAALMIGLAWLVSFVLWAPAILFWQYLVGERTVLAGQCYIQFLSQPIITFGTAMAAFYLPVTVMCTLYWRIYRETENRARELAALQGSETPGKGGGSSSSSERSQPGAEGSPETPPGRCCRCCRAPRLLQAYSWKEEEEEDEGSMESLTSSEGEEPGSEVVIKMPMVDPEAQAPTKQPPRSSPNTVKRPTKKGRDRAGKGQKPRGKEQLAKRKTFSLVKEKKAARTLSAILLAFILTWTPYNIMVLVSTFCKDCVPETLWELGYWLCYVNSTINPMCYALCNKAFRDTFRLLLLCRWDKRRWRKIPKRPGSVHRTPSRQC
As to the kind of experiment: R-SAT / NIH 3T3 cells transfected with m1 muscarinic receptor. The conditions noted are these: NIH3T3; m1; compound at 1.5 μM; maximum = response to 10 μM carbachol; read-out: Cellular response as a percentage of the maximum response of the cells. Format: cell-based. As to the method: Cell amplification is detected as increased levels of a marker also expressed by the cells.
The cells were treated with trypsin-EDTA, spun down and plated at 2×10^6 per 15 cm dish in 20 m1 of DMEM containing 10% calf serum.
(§1) On day one, the cells were transfected using the Superfect transfection reagent (available from Qiagen, Valencia, Calif.) in accordance with the manufacturer's instructions. Receptor DNA, β-gal DNA (pSI-β-galactosidase available from Promega, Madison, Wis.), chimeric Gq-i5 DNA for the m2 and m4 receptor subtype assays, and salmon sperm DNA (available from Sigma, St. Louis, […].) as filler to a total of 20 μg DNA was added per plate. Prior to addition to the plates, 60 μl Superfect was added to the DNA and mixed thoroughly by pipetting up and down several times. The mixture was incubated at room temperature for 10-15 minutes. The media were aspirated, and 12 ml fresh DMEM containing 10% calf serum and 50 units/m1 penicillin/streptomycin was added to the plates. The DNA-Superfect solution was mixed once more with a pipette and added to the plate which was swirled to distribute the DNA mixture evenly over the surface. The cells were incubated overnight at 37° C. and 5% CO2. After incubation, the media were aspirated and the plates were rinsed once with a 15 m1 volume of Hank's Buffered Saline. The plates were swirled to ensure thorough rinsing. 20 m1 fresh DMEM supplemented with 10% calf serum and 50 units/m1 penicillin/streptomycin was added to the plates. The cells were incubated for 24-48 hours until the plates were 100% confluent.
(§2) Assay of NIH 3T3 cells transfected with muscarinic receptor subtypes (general procedure) DMEM containing 2% Cyto-SF3 was heated at 37° C. in a water bath under sterile conditions. Sterile working stock solutions of test compounds to be assayed were prepared by diluting the compounds in DMEM to 8× the final concentration for testing. The compound (carbachol) to be included in the assay as a positive control was also diluted in DMEM to 8× the final concentration. 50 μL of the DMEM containing 2% Cyto-SF3 was added to each well of 96-well microtiter plates under sterile conditions. Then, 16 of compound solutions were added to the top wells of the plates, and dilution of the solutions was performed by taking 16 μl of the compound solutions from the top wells and pipetting them into the next row of wells. This procedure was repeated with each subsequent row of wells, except that 50 μl medium alone was added to the baseline control wells (the wells that contain medium and cells, but not test compounds) and plate control wells (wells containing medium, but not test compounds and cells). The plates were then placed in an incubator at 37° C. to equilibrate temperature and pH.
When the cell cultures had reached 100% confluence, the medium was aspirated and each plate was rinsed with 15 m1 Hank's Buffered Saline (HBS). The cells were left in the incubator for about 10-15 minutes until the HBS had turned slightly yellow. The HBS was then aspirated and 1 m1 trypsin was added to each plate and swirled so as to completely cover the plates. The edges of the plates were gently rapped several times to loosen the cells. After the cells had been dislodged from the surface, 8 m1 DMEM containing 10% calf serum and 50 units/m1 penicillin and 50 units/m1 streptomycin was added to inhibit the trypsin. The plates were rinsed with this medium, and the cells were pipetted into a tube. The cells were centrifuged at 1000 rpm for 5-10 min. in an IEC Centra CL2 centrifuge (produced by Sorvall). Afterwards, the medium was carefully aspirated so as not to dislodge the cells. The cell pellet was suspended in 1600 μl DMEM containing 10% calf serum and 50 units/m1 penicillin and 50 units/m1 streptomycin, after which 20 m1 DMEM supplemented with 2% Cyto-SF3 was added. 50 μl aliquots of this cell suspension was added to the wells of the 96-well microtiter plates prepared above (except for the plate control wells).

Series [2] has as its target T2, m3 receptor (Homo sapiens, UniProt P20309).
T2 construct: expressed in transfected cells; host or cells: NIH 3T3 (ATCC CRL 1658)
The series can be described thus: R-SAT / NIH 3T3 cells transfected with m3 muscarinic receptor. Format: cell-based. Particulars: NIH3T3; m3; compound at 1.5 μM; maximum = response to 10 μM carbachol; read-out: Cellular response as a percentage of the maximum response of the cells.
Source text: (§3) A particularly convenient functional assay system is the receptor selection and amplification assay disclosed in U.S. Pat. No. 5,707,798 describing a method of screening for bioactive compounds by utilizing the ability of cells transfected with receptor DNA, e.g. coding for the different muscarinic subtypes, to amplify in the presence of a ligand of the receptor. Cell amplification is detected as increased levels of a marker also expressed by the cells.
(§4) Transfection of cells with muscarinic receptor DNAs (general procedure) NIH 3T3 cells (available from the American Type Culture Collection as ATCC CRL 1658) were grown at 37° C. in a humidified atmosphere (5% CO2) incubator in Dulbecco's modified Eagle's medium (DMEM) supplemented with 4.5 g/l glucose, 4 mM glutamine, 50 units/m1 penicillin, 50 units/m1 streptomycin (available from Advanced Biotechnologies, Inc., Gaithersburg, Md.) and 10% calf serum (available from Sigma, St. Louis, […].). The cells were treated with trypsin-EDTA, spun down and plated at 2×10^6 per 15 cm dish in 20 m1 of DMEM containing 10% calf serum.
(§5) The m1-m5 muscarinic receptor subtypes were cloned substantially as described by Bonner et al., Science 237, 1987, p. 527, and Bonner et al., Neuron 1, 1988, p. 403. For the m2 and m4 receptors, the cells were co-transfected with DNA encoding a chimera between the Gq protein and the five carboxy-terminal amino acids of the Gi protein (the Gq-i5 construct is described by Conklin et al., Nature 363, 1993, p.274).
as §1
as §2, with “The plates were then placed in an incubator at 37° C. to equilibrate temperature and pH.” left out

Series [3] has as its target T3, m5 receptor (Homo sapiens, UniProt P08912).
T3 construct: expressed in transfected cells; host or cells: NIH 3T3 (ATCC CRL 1658)
T3 sequence (P08912 1-532): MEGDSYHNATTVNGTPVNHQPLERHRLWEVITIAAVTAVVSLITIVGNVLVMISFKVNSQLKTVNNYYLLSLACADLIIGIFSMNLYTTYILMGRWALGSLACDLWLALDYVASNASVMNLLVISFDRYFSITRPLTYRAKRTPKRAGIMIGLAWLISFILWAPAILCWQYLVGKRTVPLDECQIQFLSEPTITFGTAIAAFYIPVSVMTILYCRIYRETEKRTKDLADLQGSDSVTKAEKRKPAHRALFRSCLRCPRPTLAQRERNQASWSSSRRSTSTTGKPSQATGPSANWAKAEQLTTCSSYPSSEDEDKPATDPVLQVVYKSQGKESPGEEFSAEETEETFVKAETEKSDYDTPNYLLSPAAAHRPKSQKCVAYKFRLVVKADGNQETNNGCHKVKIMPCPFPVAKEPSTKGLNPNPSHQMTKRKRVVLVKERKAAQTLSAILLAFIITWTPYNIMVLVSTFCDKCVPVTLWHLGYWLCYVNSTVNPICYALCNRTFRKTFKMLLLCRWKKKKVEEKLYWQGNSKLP
As to the kind of experiment: R-SAT / NIH 3T3 cells transfected with m5 muscarinic receptor. Format: cell-based. Particulars: NIH3T3; m5; compound at 1.5 μM; maximum = response to 10 μM carbachol; read-out: Cellular response as a percentage of the maximum response of the cells.
Source text: as §3, §4, §5, §1
as §2, with “The plates were then placed in an incubator at 37° C. to equilibrate temperature and pH.” left out

The conditions of series [4]: human, in vivo; cited from earlier work.

Structures are written as SMILES.

T2 sequence (P20309 whole entry): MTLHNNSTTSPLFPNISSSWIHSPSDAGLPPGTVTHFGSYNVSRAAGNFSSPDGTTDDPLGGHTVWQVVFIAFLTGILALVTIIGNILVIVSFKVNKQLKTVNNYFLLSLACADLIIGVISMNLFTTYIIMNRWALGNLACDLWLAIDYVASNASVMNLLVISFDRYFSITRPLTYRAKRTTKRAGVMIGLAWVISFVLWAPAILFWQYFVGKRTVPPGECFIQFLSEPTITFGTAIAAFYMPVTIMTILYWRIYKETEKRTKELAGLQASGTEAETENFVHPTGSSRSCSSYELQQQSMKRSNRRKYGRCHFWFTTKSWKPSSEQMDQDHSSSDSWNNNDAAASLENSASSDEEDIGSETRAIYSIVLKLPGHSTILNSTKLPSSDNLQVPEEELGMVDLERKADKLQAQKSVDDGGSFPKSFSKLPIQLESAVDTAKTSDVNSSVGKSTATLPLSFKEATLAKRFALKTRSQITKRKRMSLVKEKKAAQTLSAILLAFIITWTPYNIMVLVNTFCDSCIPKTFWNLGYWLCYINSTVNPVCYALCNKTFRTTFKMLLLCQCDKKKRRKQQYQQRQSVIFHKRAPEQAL

For the molecule `CCCCC1CCN(CCCC(=O)c2ccccc2OCC)CC1` [B, 4-n-Butyl-1-[4-(2ethoxyphenyl)-4-oxo-1-butyl]piperidine], the Emax at 1.5 µM in series [1] is 76%; in series [2], 7%; in series [3], -6%.

Turning to `CCCCC1CCN(CCCC(=O)c2cccc(C)c2C)CC1` [D, 4-n-Butyl-1-[4-(2,3-dimethylphenyl)-4-oxo-1-butyl]piperidine], the Emax at 1.5 µM in series [1] stood at 72%; in series [2] it was 13%; in series [3] it was 2%.

Regarding `CCCCC1CCN(CCCC(=O)c2ccccc2OC)CC1` [F, 4-n-Butyl-1-[4-(2-methoxyphenyl)-4-oxo1-butyl]piperidine], the Emax at 1.5 µM in series [1] came out at 65%; in series [2], 9%; in series [3] it was 5%.

`CCCCC1CCN(CCCC(=O)c2ccccc2O)CC1` [C, 4-n-Butyl-1-[4-(2-hydroxyphenyl)-4-oxo-1-butyl]piperidine]: the Emax at 1.5 µM in series [1] worked out at 91%; in series [2], 4%; in series [3] it was 0%.

As for `Nc1c2c(nc3ccccc13)CCCC2` [Tacrine, 9-amino-1,2,3,4-tetrahydroacridine], in series [4], the “patients with elevated liver transaminases (hepatotoxicity)” value is reported as “about 30%” and the “patients with gastrointestinal side effects” value was “about a third”.

Regarding `CCCCC1CCN(CCCC(=O)c2ccccc2)CC1` [G, 4-n-Butyl-1-[4-phenyl-4-oxo-1-butyl]piperidine], the results for the Emax at 1.5 µM in series [1], in series [2] and in series [3] were 66%, 16% and 7%, respectively.

As to `CCCCC1CCN(CCCC(=O)c2ccc(C)cc2C)CC1` [E, 4-n-Butyl-1-[4-(2,4-dimethylphenyl)-4-oxo-1-butyl]piperidine], the Emax at 1.5 µM in series [1] is 42%; in series [2] it was 9%; in series [3], -3%.

The values are drawn from patent US7485651B2, “Compounds with activity on muscarinic receptors” (Acadia Pharmaceuticals, Inc., priority 1998, dated 2009).
